Reference: patent US4490393A, “Thiazolylurea derivatives, a process for preparing same and a pharmaceutical composition containing same” (Mitsui Toatsu Kagaki Kabushiki Kaisha, priority 1981, dated 1984)
Structures can show the parent of a compound that is named as a salt.

These compounds were tested on delayed hypersensitivity induced by picryl chloride (assay: Reinforcement Test of Delayed Hypersensitivity (Test Example 1)). Conditions: ICR mice, oral 50 mg per Kg simultaneously with sensitization; 24 hours after challenging; average of both pinnae of eight mice; * P<0.05, ** P<0.01 vs control.
Type: in vivo, ICR male mice
Source text: The delayed hypersensitivity induced on a mouse when picryl chloride(2-chloro-1,3,5-trinitrobenzene) is coated on the skin of the mouse is known as a typical cellular immunity.
This test system was used for the reinforcement tests of the delayed hypersensitivity.
Groups of eight ICR male mice, each having a body weight of about 30 g or so, were used for the test.
Sensitization was effected by coating a 3% solution of picryl chloride in a 4/1 mixture of olive oil and acetone on the shaved abdomen of each of the mice.
Simultaneously with the sensitization, a solution or suspension of a compound of the present invention dissolved or suspended in a 0.2% solution of carboxymethylcellulose in a physiological saline was orally administered to the mouse at a dose of 50 mg per Kg of its body weight. To each mouse of a control group, was similarly administered a 0.2% carboxymethylcellulose solution in a physiological saline.
The delayed hypersensitivity was induced 7 days after the sensitization by pinching each of the pinnae of each mouse with a pair of forceps whose tip portions were wrapped with a felt impregnated with a 1% solution of picryl chloride in olive oil and coating the pinnae with the solution. The thickness of each pinna was measured before the challenging and 24 hours after the challenging and the ratio of increase of the thickness (average value of both of the pinnae of the eight mice) is shown in Table 1.
For comparison, a similar test was carried out using Levamisole hydrochloride. The results thereof are also shown.
F.t tests were carried out on the thus-obtained test results.
With `c1ccc([C@H]2CN3CCSC3=N2)cc1` [Levamisole.HCl, Levamisole hydrochloride, reference compound] the “Ratio of Increase of Pinna Thickness” value was 31.2%.
With `O=C(Nc1nc(-c2ccccc2)cs1)Nc1nc(-c2ccccc2)cs1` [drawing 8] the “Ratio of Increase of Pinna Thickness” value was 37.5%.
For `Cc1ccc(-c2csc(NC(=O)Nc3nc(-c4ccc(C)cc4)cs3)n2)cc1` [drawing 9], the “Ratio of Increase of Pinna Thickness” value was 36.1%.
With `COc1ccc(-c2csc(NC(=O)Nc3nc(-c4ccc(OC)cc4)cs3)n2)cc1` [drawing 10] the “Ratio of Increase of Pinna Thickness” value was 31.7%.
For `CSc1sc(NC(=O)Nc2nc(-c3ccccc3)c(SC)s2)nc1-c1ccccc1` [drawing 11], the “Ratio of Increase of Pinna Thickness” value was 29.0%.
In the case of `Cc1cc(NC(=O)Nc2nc(-c3ccccc3)cs2)no1` [drawing 12], the “Ratio of Increase of Pinna Thickness” value is reported as 37.8%.
For `O=C(Nc1ccccn1)Nc1nc(-c2ccccc2)cs1` [drawing 13], the “Ratio of Increase of Pinna Thickness” value was 25.4%.

These compounds were tested on ddY male mice (assay: Acute Toxicity Test through Oral Administration (Test Example 3)). Conditions: observed for 7 days.
Type: in vivo
Source text: To each of a group of five ddY male mice, was orally administered a medicine dissolved or suspended in physiological saline.
In the case of `c1ccc([C@H]2CN3CCSC3=N2)cc1` [Levamisole.HCl, Levamisole hydrochloride, reference compound], the “estimated LD50” value is reported as 200 to 300 mg/kg.

Each compound was assayed on adjuvant arthritis caused by the injection of a Mycobacterium tuberculosis adjuvant (assay: Adjuvant Arthritis Test (Test Example 2)). Conditions: SD rats, subcutaneous 5 mg per Kg, 9 times; average value from 16th to 20th days; left hind leg; * P<0.05, ** P<0.01 vs control.
Type: in vivo, SD male rats
Source text: The adjuvant arthritis in rats caused by the injection of a Mycobacterium tuberculosis adjuvant is often utilized for a model test of chronic rheumatoid arthritis in human.
The mechanism of manifestation of this disease has not completely been elucidated, but it is known that cellular immunity plays an important role. The immuno-modulating activity of the compounds of the present invention was investigated in accordance with this known adjuvant arthritis test.
8-Week-old SD male rats were used for the test. In 0.1 ml of fluid paraffin, 0.4 mg of dry dead cells of Mycobacterium tuberculosis were suspended, and the suspension was injected under the heel skin of the right hind leg of each rat. Each of the compounds of the present invention was subcutaneously administered 9 times in total before and after the injection of the adjuvant. Each of the compounds of the present invention was dissolved or suspended in a 0.2% solution of carboxymethylcellulose in physiological saline and administered to each rat at a dose of 5 mg per Kg of the body weight. The swollen volume of the left hind leg was measured during the period of from the day of injection to the day of completion of the test, and the swelling ratio was calculated. For comparison, a similar test was conducted using Levamisole hydrochloride. F.t tests were carried out on the test results obtained.
In the case of `c1ccc([C@H]2CN3CCSC3=N2)cc1` [Levamisole.HCl, Levamisole hydrochloride, reference compound], the “Swell suppression ratio to control group” value is reported as 19.8%.
With `O=C(Nc1nc(-c2ccccc2)cs1)Nc1nc(-c2ccccc2)cs1` [drawing 14] the “Swell suppression ratio to control group” value was 35.7%.
With `Cc1ccc(-c2csc(NC(=O)Nc3nc(-c4ccc(C)cc4)cs3)n2)cc1` [drawing 15] the “Swell suppression ratio to control group” value was 29.3%.
With `COc1ccc(-c2csc(NC(=O)Nc3nc(-c4ccc(OC)cc4)cs3)n2)cc1` [drawing 16] the “Swell suppression ratio to control group” value was 37.5%.
With `CSc1sc(NC(=O)Nc2nc(-c3ccccc3)c(SC)s2)nc1-c1ccccc1` [drawing 17] the “Swell suppression ratio to control group” value was 28.8%.
In the case of `Cc1cc(NC(=O)Nc2nc(-c3ccccc3)cs2)no1` [drawing 18], the “Swell suppression ratio to control group” value is reported as 26.6%.
`O=C(Nc1ccccn1)Nc1nc(-c2ccccc2)cs1` [drawing 19] was tested, and the “Swell suppression ratio to control group” value was 34.6%.
